Columns and labels:
[1] = test system: LBP (lipopolysaccharide binding protein); assay: LBP ELISA in tumor tissue and blood serum of G55 glioma-bearing mice; assay type: in vivo, mouse
Procedure: Lipopolysaccharide binding protein (LBP) ELISA assay. The LBP ELISA kit (Antibodies-Online.com; ABIN370808) is specific for mouse LBP levels in serum, plasma and tissue samples. This is a colorimetric assay that was read on a micro plate reader for measurement of absorbance at 450/620 nm. LBP concentrations were calculated from a standard curve and multiplied by appropriate dilution factors.

[2] = tested in vivo; cited from earlier work
[3] = test system: MGMT; assay: ELISA protein level in human GBM cell lysates; assay type: cell-based
Procedure: (§1) ELISA for HIF-1a, MPG and MGMT. Protein expressions were assessed in all six glioma cell lines for all four groups of treatment (cell alone, cells with TMZ, cells with OKN, cells with combined OKN and TMZ). Cells were lysed before assaying. In brief, cells were washed by cold PBS gently, and then detached with trypsin, and collected by centrifugation at 1,000×g for 5 minutes. Then, cells were washed three times in cold PBS, then suspended in fresh lysis buffer. Lysates were centrifuged at 1,500×g for 10 minutes at 2-8° C. to remove cellular debris.
(§2) The assay is based on the sandwich ELISA principle. Each well of the supplied microtiter plate has been pre-coated with a target specific capture antibody. Standards or samples are added to the wells and the target antigen binds to the capture antibody. Unbound Standard or sample is washed away. A biotin-conjugated detection antibody is then added which binds to the captured antigen. Unbound detection antibody is washed away. An Avidin-Horseradish Peroxidase (HRP) conjugate is then added which binds to the biotin. Unbound Avidin-HRP conjugate is washed away. A TMB substrate is then added which reacts with the HRP enzyme resulting in color development. A sulfuric acid stop solution is added to terminate color development reaction and then the optical density (OD) of the well is measured at a wavelength of 450 nm±2 nm. The OD of an unknown sample can then be compared to an OD standard curve generated using known antigen concentrations in order to determine its antigen concentration.
(§3) The antigen concentration determined from ELISA was then normalized to the total protein concentration of each cell lysate in order to have comparison between groups. ELISA Kits for N-Methylpurine DNA Glycosylase (MPG) and for Hypoxia Inducible Factor 1 Alpha (HIF1a) were purchased from CLOUD-CLONE CORP.(CCC) and for Human MGMT from LifeSpan Biosciences, Inc.

[4] = test system: HIF-1α; assay: ELISA protein level in human GBM cell lysates; assay type: cell-based
Procedure: as §1, §2, §3

[5] = in vivo; cited from earlier work
[6] = Solubility in water; assay type: physicochemical; conditions: free acid
[7] = test system: LBP (lipopolysaccharide binding protein); assay: LBP ELISA in tumor tissue and serum of F98 glioma-bearing rats; assay type: in vivo, rat
From the text: The inventor also discovered a potential biomarker, LBP (lipopolysaccharide binding protein), that is elevated in tumors of rat F98 glioma-bearing rats (assessed by ELISA), and in GBM human tissue samples (assessed by immunohistochemistry). […] The inventor used an ELISA kit for LBP to assess this biomarker as an efficacy marker in both G55-tumor-bearing mice in both tumor tissue and blood serum, either untreated or treated with TMZ, OKN-007 or TMZ +OKN-007.
Mice and Treatments. Animal studies were conducted in accordance to the OMRF IACUC (Institutional Animal Care and Use Committee) policies, which follow NIH guidelines. For the F98 rat glioma cell implantation model, F98 cells (10^5 in 10-μ1 volume) were intracerebrally implanted with a stereotaxic device (2 mm lateral and 2 mm anterior to the bregma, and at a 3 mm depth) in a total of 15 Fischer 344 rats (male 200-250 gm). The animals were divided into two groups once tumors reached 10-20 mm^3 in volume (as determined by MRI): OKN-007 treated (n=8) and untreated (UT) (n=7) groups. […] Once tumors reached 10-15 mm^3 (determined via MRI), mice were either treated daily with OKN-007 in the drinking water (150 mg/kg; 0.20% w/v for a 20 g mouse), or every 3 days with TMZ (30 mg/kg). […] Water bottles were weighed, and the amount of OKN-007 consumed per mouse was determined. […]

[8] = test system: human G55 xenograft; assay: Orthotopic G55 human GBM xenograft in nude mice (survival, MRI tumor volume, perfusion rCBF); assay type: in vivo, mouse
Procedure: Mice and Treatments. Animal studies were conducted in accordance to the OMRF IACUC (Institutional Animal Care and Use Committee) policies, which follow NIH guidelines. Two-month-old male nude mice (Hsd:Athymic Nude-Foxnlnu mice; Harlan Inc., Indianapolis, Ind.) were implanted intra-cerebrally with human G55 xenograft cells (1×10^7) per mL suspended in 4 μL in cell culture media of 1% aragose solution. Once tumors reached 10-15 mm^3 (determined via MRI), mice were either treated every 3 days with OKN-007 (150 mg/kg; via drinking water continuously) or TMZ (30 mg/kg via gavage every 3 days). TMZ was dissolved in 5% DMSO and 5% solutol-15 in sterile saline. Mice were treated until the tumor reached 100-150 mm^3 or for a total of up to 60 days after tumors were detected by MRI (>5 mm^3).
MRI. MRI experiments were performed on a Bruker Bio-spec 7.0 Tesla/30-cm horizontal-bore magnet imaging system. […] T2-weighted imaging was obtained, and tumor volumes were calculated from MRI datasets.
Perfusion imaging. In order to assess microvascular alterations associated with tumor capillaries, the perfusion imaging method, arterial spin labeling (ASL), was used. Perfusion maps were obtained on a single axial slice of the brain located on the point of the rostro-caudal axis where the tumor has the largest cross-section. Five regions of interest (ROIs) were manually outlined around the tumor, and appropriate ROIs were also taken from the contralateral side of the brain for comparison purposes. To calculate the differences in rCBF values, tumor rCBF values were obtained at late (days 18-26 following intracerebral implantation of cells for untreated mice) and early (days 10-13 following cell implantation) tumor stages, and normalized to rCBF values in the contralateral brain region of corresponding animals.
Statistical analyses. Survival curves were analyzed using Kaplan-Meier curves. Tumor volumes, changes in normalized rCBF, and LBP levels were compared by two-way ANOVA with multiple comparisons. Data were represented as mean±SD, and P-values of either *0.05, **0.01, ***0.001, and ****0.0001 were considered statistically significant.
Mice and Treatments. Animal studies were conducted in accordance to the OMRF IACUC (Institutional Animal Care and Use Committee) policies, which follow NIH guidelines. […] Once tumors reached 10-15 mm^3 (determined via MRI), mice were either treated daily with OKN-007 in the drinking water (150 mg/kg; 0.20% w/v for a 20 g mouse), or every 3 days with TMZ (30 mg/kg). […] Water bottles were weighed, and the amount of OKN-007 consumed per mouse was determined. […]

[9] = test system: G55 GBM cells; assay: Cell migration in laminin-coated PDMS micro-channels; assay type: cell-based, human; conditions: at 22 h and 46 h following treatment
Procedure: Cell migration. For the migration study, 6-well chambers with PDMS (polydimethylsiloxane) micro-channels inside were coated with 10 μg/ml of laminin (Sigma-Aldrich) in each well. G55 cells were seeded (50×10^3) in 100 μl and supplemented with 2 ml of media in each well. The chambers were incubated in the incubator at 37° C. with 5% CO2 until scheduled time points. Some chambers were treated with OKN-007, TMZ or OKN-007 combined with TMZ (1 μL/mL media for both OKN-007 and TMZ, as well as when the two are combined), and for each treatment group one well was left untreated as a control. Images of the cells inside the microchannels were taken using an Olympus CK40 inverted microscope (Japan) under 10× and the distances of the same cells traveled were measured at 22 h, 28 h, and 46 h post seeding, cell migration speed (μm/h) was calculated. Each treatment was repeated at least 3 times and data shown as mean ±S.D.

CC(C)(C)[N+]([O-])=Cc1ccc(S(=O)(=O)O)cc1S(=O)(=O)O [OKN-007, 2,4-disulfonyl phenyl tert-butyl nitrone]
LBP levels in tumor tissues compared to UT mice [1]: significantly less
efficacy as compared to PBN [2]: unexpected increase in efficacy
potency as compared to PBN [2]: increase in potency
toxicity as compared to PBN [2]: marked and highly significant decrease in toxicity
ELISA protein level MGMT ([3]; G55 cells, UT 0.37): 0.31 ng/mg cell lysate
ELISA protein level MGMT ([3]; LN18 cells, UT 1.23): 0.98 ng/mg cell lysate
ELISA protein level MGMT ([3]; LN229 cells, UT 0.67): 0.69 ng/mg cell lysate
ELISA protein level MGMT ([3]; T98 cells, UT 0.62): 0.84 ng/mg cell lysate
ELISA protein level MGMT ([3]; U138 cells, UT 0.77): 0.75 ng/mg cell lysate
ELISA protein level MGMT ([3]; U251 cells, UT 0.92): 0.91 ng/mg cell lysate
ELISA protein level HIF-1α ([4]; G55 cells, UT 0.14): 0.19 ng/mg cell lysate
ELISA protein level HIF-1α ([4]; LN18 cells, UT 0 76): 0.92 ng/mg cell lysate
ELISA protein level HIF-1α ([4]; LN229 cells, UT 0.68): 0.66 ng/mg cell lysate
ELISA protein level HIF-1α ([4]; T98 cells, UT 0.42): 0.58 ng/mg cell lysate
ELISA protein level HIF-1α ([4]; U138 cells, UT 0.40): 0.33 ng/mg cell lysate
ELISA protein level HIF-1α ([4]; U251 cells, UT 0.30): 0.61 ng/mg cell lysate
crossing of the blood brain barrier [5]: can readily cross the BBB
solubility in water [6]: greater than 1 gram/ml
LBP levels in tumor tissues compared to untreated gliomas ([7]; F98 glioma bearing rats, p<0.0001): significant decrease in LBP levels
serum levels of LBP compared to untreated tumor-bearing rats ([7]; F98 glioma-bearing rats, p<0.001): significantly lower
percent of treated mice alive 60 days following tumor detection ([8]; G55 glioma-bearing nude mice, OKN-007 150 mg/kg in drinking water, TMZ 30 mg/kg gavage every 3 days, n=5): 20%
tumor volumes compared to UT mice ([8]; MRI at 19-22 days following tumor detection, G55 glioma-bearing mice): significantly decreased tumor volumes
tumor volumes compared to UT mice ([8]; last MRI time-point for each treatment group): no significant difference in tumor volumes
tumor perfusion rates compared to TMZ treatment ([8]; perfusion MRI, no significant differences between treated groups): more normalized perfusion rates
cell migration speed compared to untreated (UT) cells [9]: significantly decreased

— US11660280B2, “Treatment of drug resistant gliomas” (OKLAHOMA MEDICAL RESEARCH FOUNDATION, priority 2017, dated 2023)
